The source of these data is article PMC3026091 (Antiviral research, 2010).

Assay [1] concerns DEN2V NS2B-NS3pro. Format: biochemical, dengue 2 virus (strain TSV01). To be noted: mechanism of inhibition of DEN2V NS2B-NS3pro, Dynafit model selection.
The target of assay [2] is T1, Bovine pancreatic trypsin (Bos taurus, UniProt P00760).
T1 sequence (P00760 24-246): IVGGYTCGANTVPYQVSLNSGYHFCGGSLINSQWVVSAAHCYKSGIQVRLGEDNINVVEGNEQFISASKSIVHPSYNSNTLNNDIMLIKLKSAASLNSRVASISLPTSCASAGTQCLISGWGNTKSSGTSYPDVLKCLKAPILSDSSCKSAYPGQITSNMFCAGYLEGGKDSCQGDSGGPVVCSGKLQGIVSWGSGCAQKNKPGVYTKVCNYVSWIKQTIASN
The assay can be described thus: Trypsin inhibition assay with chromogenic BAPNA substrate. To be noted: analog 100 µM, trypsin 60 µM, BAPNA 500 µM; data not shown. Format: biochemical.

Assay [3] concerns the target T1, Bovine pancreatic trypsin. The assay can be described thus: Steady-state kinetics of inhibitors of trypsin. Format: biochemical. To be noted: BOC-GRR-AMC fluorogenic substrate; for Mechanism (trypsin): mechanism of trypsin inhibition.

The structures appear in SMILES notation.

For `O=C1c2c(O)ccc([N+](=O)[O-])c2C(=O)c2c([N+](=O)[O-])ccc(O)c21` [ARDP0006], in assay [1], the Mechanism entry is listed as “competitive inhibition model”. For the same compound, the “Inhibition of trypsin cleavage of the chromogenic substrate BAPNA” value in assay [2] is on record as “inhibited trypsin cleavage of the fluorogenic substrate but not the chromogenic substrate”. The “Mechanism (trypsin)” value in assay [3] is listed as “uncompetitive trypsin inhibitor”. Also, the Ki in assay [3] (read-out: Ki2 trypsin, 50 nM trypsin) was 13 ± 0.1 µM.
Consider `N=C(N)c1ccccc1` [Benzamidine, reference compound], for which the “Mechanism (trypsin)” value in assay [3] was “Competitive”.
